Read-outs that look alike come from different tables or passages of the source.

The record followed here is patent US20130315843A1, “COMPOSITION FOR REDUCTION OF TRPA1 AND TRPV1 SENSATIONS” (priority 2012, published 2013).

Assay [1] addresses T1, human TRPA1 (Homo sapiens, UniProt O75762). The assay is described as follows: FLIPR Ca2+ assay, reduction of L-Menthol activation of TRPA1. Conditions: 100 μM antagonist vs 1 mM L-Menthol.
Procedure: In order to determine whether TRPA1 is activated, the intracellular calcium ion (Ca^2+) level from transfected cells with the TRPA1 receptor gene was measured. HEK-2 cells stably transfected with human TRPA1 were grown in 15 ml growth medium [high glucose DMEM (Dulbecco's Modification of Eagle's Medium) supplemented with 10% FBS (fetal bovine serum), 100 μg/ml Penicillin/streptomycin, 100 μg/ml G418] in a 75 Cm^2 flask for 3 days at 37° C. in a mammalian cell culture incubator set at 5% CO2. Cells were detached with addition of 10 ml of PBS (phosphate buffered saline) by hand shaking gently and transferred to a 50 ml tube and centrifuged at 850 rpm for 3 minutes to remove PBS. After centrifugation, a pellet of cells was formed in the bottom of the tube separating them from the supernatant solution. […] Fluo-4 is a fluorescent dye used for quantifying cellular Ca^2+ concentrations in the 100 nM to 1 μM range.
The pelleted cells were re-suspended in 10 ml assay buffer and 90 μl aliquots (˜50,000 cells) per well delivered to a 96-well assay plate containing 10 μl of test compounds (1 mM in assay buffer, final concentration 100 μM) or buffer control and incubated at room temperature for 30 minutes. After 30 minutes, the plate was placed into a fluorometric imaging plate reader (FLIPR384 from Molecular Devices) and basal fluorescence recorded (excitation wave length 488 nm and emission wave length 510 nm). Then 20 μl of the molecule being tested as a TRPA1 antagonist was added and fluorescence recorded. For determining the direct effect of test compounds on TRPA1, fluorescence was measured immediately after addition of each compound.
To determine if a compound was an antagonist or a desensitizer the direct effect of a test compound was determined. For determining the direct effect of test compounds on TRPA1 receptor activation, 100 μl aliquots (˜50,000 cells) of cells prepared as described above were delivered to a 96-well assay plate and basal fluorescence recorded as noted above. Then 20 μl of the compound being tested as a TRPA1 activator was added and fluorescence recorded. If any increase in fluorescence over background was noted, then the compound was considered an agonist.
The target in another assay is human TRPV1 (Homo sapiens, UniProt Q8NER1). Briefly: FLIPR Ca2+ assay, reduction of L-Menthol activation of TRPV1. The note with it: for Average Ca2+ Counts / % Reduction of L-Menthol TRPV1 Activation: antagonist 100 μM against 1 mM L-Menthol; for inhibition at 100 µM: read-out: % Reduction of L-Menthol TRPV1 Activation.
Chain of human TRPV1 (Q8NER1 whole entry): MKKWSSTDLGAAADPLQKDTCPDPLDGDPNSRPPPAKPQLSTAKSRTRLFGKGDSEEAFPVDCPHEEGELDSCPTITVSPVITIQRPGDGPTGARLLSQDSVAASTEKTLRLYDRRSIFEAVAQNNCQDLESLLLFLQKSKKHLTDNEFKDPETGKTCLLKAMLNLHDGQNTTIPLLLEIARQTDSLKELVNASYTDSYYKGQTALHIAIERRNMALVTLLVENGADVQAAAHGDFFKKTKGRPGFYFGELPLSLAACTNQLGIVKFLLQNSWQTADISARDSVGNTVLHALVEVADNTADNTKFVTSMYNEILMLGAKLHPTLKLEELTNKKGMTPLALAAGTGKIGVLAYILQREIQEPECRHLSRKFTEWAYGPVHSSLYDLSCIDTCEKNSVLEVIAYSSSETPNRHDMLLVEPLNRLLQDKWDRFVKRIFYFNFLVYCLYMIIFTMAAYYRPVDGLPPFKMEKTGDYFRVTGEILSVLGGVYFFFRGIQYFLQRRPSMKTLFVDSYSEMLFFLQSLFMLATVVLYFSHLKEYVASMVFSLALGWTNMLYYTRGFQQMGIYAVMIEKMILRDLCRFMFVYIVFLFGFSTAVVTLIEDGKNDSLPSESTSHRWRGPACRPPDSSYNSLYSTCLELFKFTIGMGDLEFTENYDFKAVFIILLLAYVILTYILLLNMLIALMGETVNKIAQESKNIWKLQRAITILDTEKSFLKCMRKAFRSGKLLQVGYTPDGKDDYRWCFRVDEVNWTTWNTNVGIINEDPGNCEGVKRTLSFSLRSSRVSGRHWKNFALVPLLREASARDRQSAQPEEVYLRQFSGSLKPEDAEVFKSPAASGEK
The target in assay [2] is T1, human TRPA1. Briefly: FLIPR Ca2+ assay, reduction of hydrogen peroxide activation of TRPA1. It counts as cell-based. Also on record: expressed in transfected cells. Conditions: for inhibition at 100 µM: read-out: % Reduction of Hydrogen Peroxide TRPA1 Activation. On the procedure: After centrifugation, a pellet of cells was formed in the bottom of the tube separating them from the supernatant solution.
The pelleted cells were re-suspended in 10 ml assay buffer and 90 μl aliquots (˜50,000 cells) per well delivered to a 96-well assay plate containing 10 μl of test compounds ([…]) or buffer control and incubated at room temperature for 30 minutes.

Where [3] appears, read: compound 100 μM against 200 μM hydrogen peroxide, Sets 1-4.

T1 sequence (O75762 whole entry): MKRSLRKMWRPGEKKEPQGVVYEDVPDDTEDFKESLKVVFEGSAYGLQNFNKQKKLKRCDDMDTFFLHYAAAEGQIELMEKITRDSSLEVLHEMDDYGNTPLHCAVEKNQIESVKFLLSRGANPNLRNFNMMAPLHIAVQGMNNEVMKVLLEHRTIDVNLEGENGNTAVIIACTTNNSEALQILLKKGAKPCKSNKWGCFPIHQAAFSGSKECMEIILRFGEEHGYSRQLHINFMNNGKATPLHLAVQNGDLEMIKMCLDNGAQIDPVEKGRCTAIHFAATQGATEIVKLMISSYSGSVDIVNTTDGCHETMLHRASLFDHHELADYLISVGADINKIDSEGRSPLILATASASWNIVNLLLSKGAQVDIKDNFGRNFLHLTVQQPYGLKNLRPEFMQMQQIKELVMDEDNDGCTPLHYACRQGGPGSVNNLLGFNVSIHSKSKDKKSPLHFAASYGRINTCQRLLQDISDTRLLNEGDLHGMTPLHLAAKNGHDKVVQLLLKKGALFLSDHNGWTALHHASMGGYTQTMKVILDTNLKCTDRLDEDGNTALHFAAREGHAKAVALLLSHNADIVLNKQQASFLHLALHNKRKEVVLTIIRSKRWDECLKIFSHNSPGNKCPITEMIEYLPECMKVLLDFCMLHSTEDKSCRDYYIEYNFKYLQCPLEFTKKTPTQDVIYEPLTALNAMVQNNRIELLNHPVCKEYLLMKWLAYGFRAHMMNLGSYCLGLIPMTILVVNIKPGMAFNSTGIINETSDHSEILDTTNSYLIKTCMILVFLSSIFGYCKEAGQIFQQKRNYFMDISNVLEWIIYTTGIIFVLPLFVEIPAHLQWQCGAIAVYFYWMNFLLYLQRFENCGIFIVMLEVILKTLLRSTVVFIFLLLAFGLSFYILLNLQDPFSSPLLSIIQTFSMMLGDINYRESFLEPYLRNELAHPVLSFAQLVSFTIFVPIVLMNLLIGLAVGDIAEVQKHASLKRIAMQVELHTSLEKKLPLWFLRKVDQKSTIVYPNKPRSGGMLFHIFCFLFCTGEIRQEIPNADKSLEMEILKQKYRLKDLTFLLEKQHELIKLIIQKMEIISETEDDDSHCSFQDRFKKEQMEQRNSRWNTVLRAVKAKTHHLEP
Procedure for human TRPV1: To determine whether TRPV1 was activated, the intracellular calcium ion (Ca^+2) levels from cells transfected with the TRPV1 receptor gene was measured. HEK-239 cells stably transfected with human TRPV1 were grown in 15 ml growth medium [high glucose DMEM (Dulbecco's Modification of Eagle's Medium) supplemented with 10% FBS (fetal bovine serum), 100 g/ml Penicillin/streptomycin, 100 g/ml G418] in a 75 Cm2 flask for 3 days at 33° C. in a mammalian cell culture incubator set at 5% CO2. Cells were detached with addition of 10 ml of PBS (phosphate buffered saline) by hand shaking gently. Cells were transferred to a 50 ml tube and centrifuged at 850 rpm for 3 minutes to remove PBS. After centrifugation, a pellet of cells formed in the bottom of the tube separating them from the supernatant solution. The supernatant was discarded and the cell pellet suspended in 1 ml of fresh growth medium to which 5 μl (12.5 g) of Fluo-4 AM (Molecular Probes, Inc., Eugene, Oreg.) calcium indicator was added and incubated for 30 minutes with gentle shaking.
The pelleted cells were re-suspended in 10 ml assay buffer and 90 μl aliquots (˜50,000 cells) per well delivered to a 96-well assay plate containing 10 μl of test compounds (1 mM in assay buffer, final concentration 100 μM) or buffer control and incubated at room temperature for 30 minutes. After 30 minutes, the plate was placed into a fluorometric imaging plate reader (FLIPR384 from Molecular Devices) and basal fluorescence recorded (excitation wave length 488 nm and emission wave length 510 nm). Then 20 μl of the compound being tested as a TRPV1 receptor activator was added and fluorescence recorded. […] It may be no difference (no effect), or negative (means antagonist or desensitizer) or positive (enhancer, also known as positive allosteric modulator). […] To determine if a compound was an antagonist or a desensitizer, the direct effect of a test compound was determined. For determining the direct effect of test compounds on TRPV1, 100 μl aliquots (˜50,000 cells) of cells prepared as described above were delivered to a 96-well assay plate and basal fluorescence recorded as noted above. Then 20 μl of the compound being tested as a TRPV1 receptor activator was added and fluorescence recorded. If any increase in fluorescence over background was noted, then the compound was considered an agonist. The agonist activity was expressed relative to that observed with a benchmark agonist such as 350 nM Capsaicin for TRPV1.
100 μM of antagonist was tested against 1 mM of L-Menthol to determine the level of reduced TRPV1 receptor activation by L-Menthol. Each antagonist compound was run with 1 mM of L-Menthol as a control and the antagonist activity of each compound was determined by comparing the Ca^2+ levels of the control with the antagonist compound being tested.

Regarding `CC(=O)OCC1=CCC2C[C@@H]1C2(C)C`, the “Block of L-Menthol activation of TRPA1” value on human TRPA1 [1] is “BLOCK ONLY MENTHOL/TRPA1”.
On the same count and under the same terms, in the case of `COC(C=C(C)CCC=C(C)C)OC` (mixture of isomers) it was “BLOCK ONLY MENTHOL/TRPA1”; in that of `CC(C)=CCCC(C)CCO` (racemic) [(+−)-beta; -Citronellol], “BLOCK ONLY MENTHOL/TRPA1”.
As for `COc1ccc(OC)cc1` [1,4-dimethoxybenzene], on human TRPV1, the “Average Ca2+ Counts” value is 3633.0 Counts and the inhibition at 100 µM worked out at 43.2%. For the same molecule, the “Block of L-Menthol activation of TRPA1” value at human TRPA1 [1] is “BLOCK ONLY MENTHOL/TRPA1”.
`Cc1ccc(C(C)C)cc1` [1-isopropyl-4-methylbenzene]: on human TRPV1, the “Average Ca2+ Counts” value came to 1112.7 Counts and the inhibition at 100 µM was found to be 40.5%. Besides, the “Block of L-Menthol activation of TRPA1” value at human TRPA1 [1] is “BLOCK ONLY MENTHOL/TRPA1”.
As to `CCCCCCCCO` [1-octanol], at human TRPV1, the “Average Ca2+ Counts” value was 1442.3 Counts and the inhibition at 100 µM was 25.2%. For the same molecule, the “Block of L-Menthol activation of TRPA1” value at human TRPA1 [1] is recorded as “BLOCK ONLY MENTHOL/TRPA1”.
On to `CCC(O)c1ccccc1` (centres unmarked) [1-phenyl 1-propanol], for which the “Block of L-Menthol activation of TRPA1” value at human TRPA1 [1] is “BLOCK ONLY MENTHOL/TRPA1”.
Turning to `Cc1nc(C)c(C)nc1C` [2,3,5,6-tetramethylpyrazine], on human TRPV1, the “Average Ca2+ Counts” value came to 972.0 Counts and the inhibition at 100 µM is 47%. At human TRPA1 [1], the “Block of L-Menthol activation of TRPA1” value was “BLOCK ONLY MENTHOL/TRPA1”.
On to `Cc1ccc(C)c(O)c1C` [2,3,6-trimethylphenol], for which, at human TRPV1, the “Average Ca2+ Counts” value came to 1339.3 Counts and the inhibition at 100 µM stood at 30%. For the same molecule, the “Block of L-Menthol activation of TRPA1” value at human TRPA1 [1] is on record as “BLOCK ONLY MENTHOL/TRPA1”.
`Cc1cnc(C)cn1` [2,5-dimethylpyrazine]: on human TRPV1, the “Average Ca2+ Counts” value was 1040.0 Counts and the inhibition at 100 µM was 43.8%. Also, the “Block of L-Menthol activation of TRPA1” value at human TRPA1 [1] is reported as “BLOCK ONLY MENTHOL/TRPA1”.
The like results for `CCCOC(C)OCCc1ccccc1` (centres unmarked) [2-(1-propoxyethoxy)ethylbenzene] were, in that order, 1480.7 Counts, 23.4% and “BLOCK ONLY MENTHOL/TRPA1”.
Regarding `C=CC1(C)CCC(C(=C)C)O1` (centres unmarked) [2-Isopropenyl-5-Methyl-5-Vinyltetrahydrofuran], the “Block of L-Menthol activation of TRPA1” value at human TRPA1 [1] is on record as “BLOCK ONLY MENTHOL/TRPA1”.
Take `CC(=O)c1nccs1` [2-acetylthiazole]: at human TRPV1, the “Average Ca2+ Counts” value stood at 3569.5 Counts and the inhibition at 100 µM stood at 23.1%. Further, the “Block of L-Menthol activation of TRPA1” value at human TRPA1 [1] is reported as “BLOCK ONLY MENTHOL/TRPA1”.
`O=C(Nc1ccccc1C(=O)O)c1ccccc1` [2-benzoylamino-benzoic acid]: at human TRPV1, the “Average Ca2+ Counts” value stood at 1207.7 Counts and the inhibition at 100 µM was 36.1%. On human TRPA1 [1], the “Block of L-Menthol activation of TRPA1” value is given as “BLOCK ONLY MENTHOL/TRPA1”.
In the case of `CCc1occc(=O)c1O` [2-ethyl-3-hydroxy-4h-pyran-4-one], on human TRPV1, the “Average Ca2+ Counts” value is given as 1095.3 Counts and the inhibition at 100 µM was 41.3%.
Consider `CCc1nccnc1OC` [2-ethyl-3-methoxypyrazine], for which, at human TRPV1, the “Average Ca2+ Counts” value came out at 1432.7 Counts and the inhibition at 100 µM is 25.7%. The “Block of L-Menthol activation of TRPA1” value on human TRPA1 [1] is reported as “BLOCK ONLY MENTHOL/TRPA1”.
The like results for `COc1ccccc1C=O` [2-methoxybenzaldehyde] were, in that order, 1050.3 Counts, 43.3% and “BLOCK ONLY MENTHOL/TRPA1”.
The like results for `COc1ccccc1C(=O)O` [2-methoxybenzoic acid] were, in that order, 1441.7 Counts, 25.2% and “BLOCK ONLY MENTHOL/TRPA1”.
With `CC1OCCC1=O` (centres unmarked) [2-methyltetrahydro-3-furanone], on human TRPV1, the “Average Ca2+ Counts” value was 993.7 Counts and the inhibition at 100 µM was found to be 46%. Moreover, the “Block of L-Menthol activation of TRPA1” value on human TRPA1 [1] is on record as “BLOCK ONLY MENTHOL/TRPA1”.
As to `SCCc1cnccn1` [2-pyrazinylethanethiol], at human TRPV1, the “Average Ca2+ Counts” value came out at 992.0 Counts and the inhibition at 100 µM was found to be 46%. On human TRPA1 [2] (setting [3]), the “Average Ca++ Counts” value is 1987.5 Counts and the inhibition at 100 µM came out at 81.2%.
With `CCC(C)C1CCCCC1=O` (centres unmarked) [2-sec-butylcyclohexanone], on human TRPA1 [1], the “Block of L-Menthol activation of TRPA1” value is “BLOCK ONLY MENTHOL/TRPA1”.
`CCC(C)C1CCCCC1=O` (centres unmarked) [2-sec.-butylcyclohexanone]: on human TRPV1, the “Average Ca2+ Counts” value came to 1352.3 Counts and the inhibition at 100 µM worked out at 29.4%.
Consider `CC(=O)c1ccccc1O` [2′-hydroxyacetophenone], for which, on human TRPV1, the “Average Ca2+ Counts” value stood at 1083.3 Counts and the inhibition at 100 µM is 41.8%. Further, the “Block of L-Menthol activation of TRPA1” value on human TRPA1 [1] is reported as “BLOCK ONLY MENTHOL/TRPA1”.
As for `O=C(O)c1ccc(O)c(O)c1` [3,4-dihydroxybenzoic acid], at human TRPV1, the “Average Ca2+ Counts” value was determined as 1539.7 Counts and the inhibition at 100 µM worked out at 20.7%. On human TRPA1 [1], the “Block of L-Menthol activation of TRPA1” value is recorded as “BLOCK ONLY MENTHOL/TRPA1”.
For `CC(O)C(C)S` (centres unmarked) [3-mercapto-2-butanol], at human TRPV1, the “Average Ca2+ Counts” value is listed as 1008.3 Counts and the inhibition at 100 µM is 45.3%.
For the molecule `CC(=O)OCCC(C)S` (centres unmarked) [3-mercaptobutyl acetate], on human TRPV1, the “Average Ca2+ Counts” value amounted to 1061.3 Counts and the inhibition at 100 µM worked out at 42.8%. On human TRPA1 [1], the “Block of L-Menthol activation of TRPA1” value was “BLOCK ONLY MENTHOL/TRPA1”.
Regarding `CCOc1ccc(C=O)cc1` [4-ethoxybenzaldehyde], on human TRPV1, the “Average Ca2+ Counts” value is given as 1200.0 Counts and the inhibition at 100 µM stood at 36.4%.
The like results for `COc1ccc(C(C)=O)cc1` [4′-methoxyacetophenone] were, in that order, 1162.0 Counts and 38.2%.
`CC(=O)OCC1=CCC2CC1C2(C)C` (centres unmarked) [6,6-dimethylbicyclo[3.1.1]hept-2-ene-2-methyl acetate]: on human TRPV1, the “% Reduction of L-Menthol TRPV1 Activation” value (“% Reduction” for short) is reported as 24.9% and the “Average Ca2+ Counts” value is given as 1448.3 Counts.
As to `O=C1O[C@H]([C@@H](O)CO)C([O-])=C1O.[Na+]` [(+)-Sodium L-ascorbate], on human TRPA1 [1], the “Block of L-Menthol activation of TRPA1” value is “BLOCK ONLY MENTHOL/TRPA1”.
In the case of `O=C1O[C@H]([C@@H](O)CO)C([O-])=C1O.[Na+]` [(+)-sodium 1-ascorbate], on human TRPV1, the “% Reduction” value came out at 26.6% and the “Average Ca2+ Counts” value amounted to 2961.0 Counts.
Turning to `C[C@@H](CO)c1ccccc1` [(r)-(+)-2-phenyl-1-propanol], on human TRPV1, the “Average Ca2+ Counts” value turned out to be 1414.0 Counts and the inhibition at 100 µM was found to be 26.5%.
Consider `C/C=C(/C)C(=O)OCC(C)C` [Angelic Acid Isobutyl Ester], for which, on human TRPA1 [1], the “Block of L-Menthol activation of TRPA1” value was “BLOCK ONLY MENTHOL/TRPA1”.
In the case of `CC(=O)CCC=C(C)CCC=C(C)CCC=C(C)C` [Farnesylacetone], on human TRPA1 [1], the “Block of L-Menthol activation of TRPA1” value is recorded as “BLOCK ONLY MENTHOL/TRPA1”.
Take `CCCCCCCC/C=C\CCCCCCCC(=O)O` [Oleic acid]: at human TRPA1 [1], the “Block of L-Menthol activation of TRPA1” value is given as “BLOCK ONLY MENTHOL/TRPA1”.
On to `CCCCCCCCCCCCC(=O)O` [Tridecanoic acid], for which the “Block of L-Menthol activation of TRPA1” value on human TRPA1 [1] is recorded as “BLOCK ONLY MENTHOL/TRPA1”.
Take `CCCCOC(=O)C(C)CC` (centres unmarked) [butyl 2-methylbutyrate]: at human TRPV1, the “Average Ca2+ Counts” value is on record as 1233.7 Counts and the inhibition at 100 µM worked out at 34.9%.
The like results for `C/C=C/C(=O)OCC/C=C\CC` [crotonic acid cis-3-hexen-1-yl ester] were, in that order, 1150.0 Counts and 38.7%.
As to `CCOC(=O)C1OC1(C)c1ccccc1` (centres unmarked) [empg], on human TRPV1, the “% Reduction” value is reported as 38.1% and the “Average Ca2+ Counts” value is reported as 1164.0 Counts.
For the molecule `OCc1ccco1` [furfuryl alcohol], the “Block of L-Menthol activation of TRPA1” value on human TRPA1 [1] is “BLOCK BOTH MENTHOL AND H2O2 ON TRPA1”. Also, at human TRPA1 [2], the “Average Ca++ Counts” value was 5585.5 Counts, the “Block of hydrogen peroxide activation of TRPA1” value is given as “BLOCK BOTH MENTHOL AND H2O2 ON TRPA1” and the inhibition at 100 µM is 47.3%.
Take `CCC1CCC(=O)O1` (centres unmarked) [gamma-caprolactone]: on human TRPV1, the “Average Ca2+ Counts” value was determined as 1084.3 Counts and the inhibition at 100 µM came out at 41.8%.
The like results for `CCCCCCCCCCCC(=O)OC` [methyl laurate] were, in that order, 1199.7 Counts and 36.4%.
With `CCCCC/C=C/C(=O)OC` [methyl trans-2-octenoate], at human TRPV1, the “Average Ca2+ Counts” value came to 1538.7 Counts and the inhibition at 100 µM came out at 20.7%.
On to `C/C=C(/C)C1CCC(C)(C)O1` (centres unmarked) [ocimene quintoxide], for which, at human TRPV1, the “% Reduction” value was determined as 34.7% and the “Average Ca2+ Counts” value was found to be 1236.3 Counts.
For the molecule `CCC(O)c1ccccc1` (centres unmarked) [phenylpropanol (1-phenyl 1-propanol), 1-phenyl 1-propanol], at human TRPV1, the “Average Ca2+ Counts” value was found to be 1218.3 Counts and the inhibition at 100 µM is 35.6%.
As to `Cc1ccc(C(C)C)c(O)c1` [thymol], on human TRPV1, the “Average Ca2+ Counts” value worked out at 1331.3 Counts and the inhibition at 100 µM is 30.3%.
In the case of `CCCCC/C=C/C=C/C=O` [trans,trans-2,4-Decadienal], the “Block of L-Menthol activation of TRPA1” value on human TRPA1 [1] is listed as “BLOCK ONLY MENTHOL/TRPA1”.
Take `CCC/C=C/C(OCC)OCC` [trans-2-hexen-1-al diethyl acetal]: at human TRPV1, the “Average Ca2+ Counts” value amounted to 1169.0 Counts and the inhibition at 100 µM was found to be 37.9%.
For the molecule `O=C/C=C/c1ccccc1` [trans-Cinnamaldehyde], the “Block of L-Menthol activation of TRPA1” value at human TRPA1 [1] is “BLOCK ONLY MENTHOL/TRPA1”.
Take d-(−)-lactic acid: at human TRPV1, the “% Reduction” value turned out to be 41.3% and the “Average Ca2+ Counts” value is on record as 1093.7 Counts.
